Results: patent US20250388593A1 (MITSUBISHI TANABE PHARMA CORPORATION, priority 2023, published 2025)

molecular target: CRBN truncate (318-426) (Homo sapiens (Human), UniProt Q96SW2); experiment: Measurement of molecular interactions using surface plasmon resonance (SPR), Biacore T200; format: binding; settings: 25° C., immobilized CRBN truncate, upper limit of measurement 200 μM
Outline: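 C-terminally Avi-tagged CRBN (318-426) captured on a streptavidin SA chip on a Biacore T200. Running buffer 10 mM HEPES pH 7.5, 150 mM NaCl, 1 mM TCEP, 0.005% Tween 20, 2% DMSO; 60 s contact, 120 s dissociation.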

Sequence of CRBN truncate (318-426) (Q96SW2 318-426): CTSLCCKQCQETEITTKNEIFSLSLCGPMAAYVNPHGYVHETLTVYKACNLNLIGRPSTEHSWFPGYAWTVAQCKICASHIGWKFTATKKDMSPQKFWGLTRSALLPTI

SMILES	Kd
NC(=O)c1nn(-c2ccc(C(=O)NCCOCCOCCNC(=O)c3ccc(N4CCC5(CCCC(=O)NC5=O)CC4=O)nc3)cc2)cc1NC(=O)c1coc(-c2ccnc(NCC3CC3)c2)n1 (centres unmarked) [Example 143, N-[3-Carbamoyl-1-[4-[2-[2-[2-[[6-(4,7,9-trioxo-3,8-diazaspiro [5.6]dodecan-3-yl)pyridine-3-carbonyl]amino]ethoxy]ethoxy]ethylcarbamoyl]phenyl]pyrazol-4-yl]-2-[2-(cyclopropylmethylamino)-4-pyridyl]oxazole-4-carboxamide]	< 50 µM
NC(=O)c1nn(-c2ccc(C(=O)NCCOCCOCCNC(=O)CN3CCC4(CCCC(=O)NC4=O)CC3=O)cc2)cc1NC(=O)c1coc(-c2ccnc(NCC3CC3)c2)n1 (centres unmarked) [Example 144, N-[3-Carbamoyl-1-[4-[2-[2-[2-[[2-(4,7,9-trioxo-3,8-diazaspiro [5.6]dodecan-3-yl)acetyl]amino]ethoxy]ethoxy]ethylcarbamoyl]phenyl]pyrazol-4-yl]-2-[2-(cyclopropylmethylamino)-4-pyridyl]oxazole-4-carboxamide]	< 50 µM
CC(C)(C)OC(=O)NCCCCCCCc1cn(C2CCCC(=O)NC2=O)nn1 (centres unmarked) [Example 147, tert-Butyl N-[7-[1-(2,7-dioxoazepan-3-yl)triazol-4-yl]heptyl]carbamate]	≥ 100 µM
O=C1CCCC(n2cc(CCCCCCCC(=O)OCc3ccccc3)nn2)C(=O)N1 (centres unmarked) [Example 148, Benzyl 8-[1-(2,7-dioxoazepan-3-yl)triazol-4-yl]octanoate]	50 to 100 µM
CC(C)(C)OC(=O)COc1ccccc1-c1cn(C2CCCC(=O)NC2=O)nn1 (centres unmarked) [Example 149, tert-Butyl 2-[2-[1-(2,7-dioxoazepan-3-yl)triazol-4-yl]phenoxy]acetate]	≥ 100 µM
CC(C)(C)OC(=O)NCCCCCCc1ccc(-c2cn(C3CCCC(=O)NC3=O)nn2)cc1 (centres unmarked) [Example 150, tert-Butyl N-[6-[4-[1-(2,7-dioxoazepan-3-yl)triazol-4-yl]phenyl]hexyl]carbamate]	≥ 100 µM
Cn1ccc2c(C(=O)N3CCC4(CCCC(=O)NC4=O)C3)cccc21 (centres unmarked) [Example 151, 2-(1-Methylindole-4-carbonyl)-2,7-diazaspiro [4.6]undecane-6,8-dione]	≥ 100 µM
O=C1CCCC2(CCN(C(=O)c3ccc4scnc4c3)C2)C(=O)N1 (centres unmarked) [Example 152, 2-(1,3-Benzothiazole-5-carbonyl)-2,7-diazaspiro[4.6]undecane-6,8-dione]	≥ 100 µM
O=C1CCCC2(CCN(C(=O)c3cnn4ccccc34)C2)C(=O)N1 (centres unmarked) [Example 153, 2-(Pyrazolo[1,5-a]pyridine-3-carbonyl)-2,7-diazaspiro[4.6]undecane-6,8-dione]	≥ 100 µM
O=C1CCCC2(CCN(C(=O)c3nc4ccccc4o3)C2)C(=O)N1 (centres unmarked) [Example 154, 2-(1,3-Benzoxazole-2-carbonyl)-2,7-diazaspiro[4.6]undecane-6,8-dione]	≥ 100 µM
Nc1ccc(C(=O)N2CCC3(CCCC(=O)NC3=O)C2)cc1 (centres unmarked) [Example 155, 2-(4-Aminobenzoyl)-2,7-diazaspiro[4.6]undecane-6,8-dione]	≥ 100 µM
Cc1ccc(NC(=O)NCc2ccccc2C(=O)N2CCC3(CCCC(=O)NC3=O)C2)cc1Cl (centres unmarked) [Example 156, 1-(3-Chloro-4-methylphenyl)-3-[[2-(6,8-dioxo-2,7-diazaspiro[4.6]undecane-2-carbonyl)phenyl]methyl]urea]	≥ 100 µM
Cc1ccc(NC(=O)NCc2ccc(C(=O)N3CCC4(CCCC(=O)NC4=O)C3)cc2)cc1Cl (centres unmarked) [Example 157, 1-(3-Chloro-4-methylphenyl)-3-[[4-(6,8-dioxo-2,7-diazaspiro[4.6]undecane-2-carbonyl)phenyl]methyl]urea]	< 50 µM
CC(C)(C)OC(=O)NCCCCCCc1cccc(C(=O)N2CCC3(CCCC(=O)NC3=O)C2)c1 (centres unmarked) [Example 158, tert-Butyl N-[6-[3-(6,8-dioxo-2,7-diazaspiro[4.6]undecane-2-carbonyl)phenyl]hexyl]carbamate]	50 to 100 µM
CC(C)(C)OC(=O)NCCCCCCc1ccccc1C(=O)N1CCC2(CCCC(=O)NC2=O)C1 (centres unmarked) [Example 159, tert-ButylN-[6-[2-(6,8-dioxo-2,7-diazaspiro[4.6]undecane-2-carbonyl)phenyl]hexyl]carbamate]	≥ 100 µM
CC(C)(C)OC(=O)NCCCCCCc1ccc(C(=O)N2CCC3(CCCC(=O)NC3=O)C2)cc1Cl (centres unmarked) [Example 160, tert-Butyl N-[6-[2-chloro-4-(6,8-dioxo-2,7-diazaspiro[4.6]undecane-2-carbonyl)phenyl]hexyl]carbamate]	50 to 100 µM
CC(C)(C)OC(=O)NCCCCCCc1cccc2c(C(=O)N3CCC4(CCCC(=O)NC4=O)C3)cccc12 (centres unmarked) [Example 161, tert-Butyl N-[6-[5-(6,8-dioxo-2,7-diazaspiro[4.6]undecane-2-carbonyl)naphthalen-1-yl]hexyl]carbamate]	50 to 100 µM
CC(C)(C)OC(=O)NCCCCCCn1ccc2c(C(=O)N3CCC4(CCCC(=O)NC4=O)C3)cccc21 (centres unmarked) [Example 162, tert-Butyl N-[6-[4-(6,8-dioxo-2,7-diazaspiro [4.6]undecane-2-carbonyl)indol-1-yl]hexyl]carbamate]	50 to 100 µM
O=C1NC(=O)C2(Nc3cccc(Br)c3)CCC1CC2 [Example 165, 1-(3-Bromoanilino)-3-azabicyclo [3.2.2]nonane-2,4-dione]	≥ 100 µM
O=C1NC(=O)C2(c3ccc(Br)cc3)CCC1CC2 [Example 167, 1-(4-Bromophenyl)-3-azabicyclo [3.2.2]nonane-2,4-dione]	≥ 100 µM
CC(C)(C)OC(=O)N1CCC(c2cnc(N3CCC4(CCCC(=O)NC4=O)C3)nc2)CC1 (centres unmarked) [Example 168-2, tert-Butyl 4-[2-(6,8-dioxo-2,7-diazaspiro [4.6]undecan-2-yl)pyrimidin-5-yl]piperidine-1-carboxylate]	< 50 µM
COC(=O)c1cc2c(N3CCC4(CCCC(=O)NC4=O)C3)ncnc2s1 (centres unmarked) [Example 176, Methyl 4-(6,8-dioxo-2,7-diazaspiro[4.6]undecan-2-yl)thieno[2,3-d]pyrimidine-6-carboxylate]	< 50 µM
N#Cc1cc([N+](=O)[O-])ccc1N1CCC2(CCCC(=O)NC2=O)C1 (centres unmarked) [Example 177, 2-(6,8-dioxo-2,7-diazaspiro[4.6]undecan-2-yl)-5-nitrobenzonitrile]	50 to 100 µM
CC(=O)N1CCc2nc(N3CCC4(CCCC(=O)NC4=O)C3)ncc2C1 (centres unmarked) [Example 178, 2-(6-Acetyl-7,8-dihydro-5H-pyrido[4,3-d]pyrimidin-2-yl)-2,7-diazaspiro[4.6]undecane-6,8-dione]	< 50 µM
N#Cc1ccc(N2CCC3(CCCC(=O)NC3=O)C2)cc1 (centres unmarked) [Example 179, 4-(6,8-Dioxo-2,7-diazaspiro[4.6]undecan-2-yl)benzonitrile]	< 50 µM
Cn1c(C(=O)OC(C)(C)C)cc2c(N3CCC4(CCCC(=O)NC4=O)C3)ncnc21 (centres unmarked) [Example 180, tert-Butyl 4-(6,8-dioxo-2,7-diazaspiro[4.6]undecan-2-yl)-7-methylpyrrolo[2,3-d]pyrimidine-6-carboxylate]	50 to 100 µM
Nc1nccc(N2CCC3(CCCC(=O)NC3=O)C2)n1 (centres unmarked) [Example 182, 2-(2-Aminopyrimidin-4-yl)-2,7-diazaspiro[4.6]undecane-6,8-dione]	≥ 100 µM
CC(C)(C)OC(=O)c1ccc(N2CCC3(CCCC(=O)NC3=O)C2)nn1 (centres unmarked) [Example 184, tert-Butyl 6-(6,8-dioxo-2,7-diazaspiro[4.6]undecan-2-yl)pyridazine-3-carboxylate]	≥ 100 µM
CC(C)(C)OC(=O)NCCCNc1nccc(N2CCC3(CCCC(=O)NC3=O)C2)n1 (centres unmarked) [Example 185]	≥ 100 µM
